Data published in PMC6264549, “Synthesis and Biological Evaluation of 3-Substituted-indolin-2-one Derivatives Containing Chloropyrrole Moieties” (Molecules, 2011).

Tests used:
[1] = molecular target: VEGFR2 tyrosine kinase (Homo sapiens, UniProt P35968); test: VEGFR2 inhibition assay (ELISA); type: biochemical; details: 5.0 µM ATP, Poly (Glu, Tyr)4:1 substrate, read-out: IC50 ± SD VEGFR2
Experimental: Seven compounds in the 14a–r series with low IC50 values on the tumor cell lines were evaluated for their inhibition of VEGFR2 using an enzyme-linked immunosorbent assay (ELISA), and the data are summarized in Table 2.
The VEGFR2 inhibition assay was performed by enzyme-linked immunosorbent assay (ELISA) in 96-well plates pre-coated with 2.5 µg/well Poly (Glu, Tyr)4:1 as a substrate. Each well was treated with 90 µL of 5.0 µM ATP (Amresco) solution and 10 µL of one of the seven compounds at varying concentrations, which were diluted in reaction buffer (50 mM HEPES pH 7.4, 20 mM MgCl2, 0.1 mM Na3VO4, 1 mM DTT). […] The reaction was initiated by adding 1 µL/well of VEGFR2 tyrosine kinase. After incubation for 1 h at 37 °C, the plates were washed three times with phosphate buffered saline containing 0.1% Tween-20 (T-PBS). Next, anti-phosphotyrosine (PY99; 1:1,000 dilution, 100 μL/well) antibody was added. After 1 h incubation at room temperature, the plates were washed three times, and goat anti-mouse IgG horseradish peroxidase (100 μL/well of 1:2,000 dilution) diluted in T-PBS was added. The plates were reincubated at room temperature for 1 h, and washed as before. Finally, color development solution (0.03% H2O2 and 2 mg/mL o-phenylenediamine in 0.1 M citrate buffer, pH 5.5, 100 µL/well) was added and the plates were incubated at room temperature until color emerged. The reaction was terminated by the addition of 2 M H2SO4 (50 µL/well), and A492 was measured using a tunable wavelength microplate reader (Molecular Devices SPECTRAMAX190). The inhibition rate was calculated using the equation: [1 − (A492/A492 control)] × 100%.

[2] = system: non-small cell lung cancer (A549); test: MTT cell growth inhibition assay, A549; type: cell-based; details: Homo sapiens, 48 h, A549 cells, two days, read-out: IC50 ± SD A549
Experimental: (§1) The antitumor activities of 14a-r were evaluated in vitro on four tumor cell lines, including non-small cell lung cancer (A549), oral epithelial (KB), melanoma (K111) and large cell lung cancer cell lines (NCI-H460) by the MTT assay, and the results are summarized in Table 1.
(§2) Non-small cell lung cancer (A549), oral epithelial (KB), large cell lung cancer (NCI-H460) and melanoma cell lines (K111) were cultured in Dulbecco’s modified Eagle medium (GIBCO) containing 10% (v/v) inactivated newborn calf serum (Boren Bio-Pharmaceutical Co., Ltd.: Guangzhou, China), […] L-glutamine (SANGON), […] penicillin, 100 µg/mL streptomycin. Cells were grown in a 5% CO2 incubator at 37 °C.
(§3) The antitumor activities were determined by the MTT assay. Cells (2 × 10^3 cells/well) were seeded in 96-well plates. After incubation overnight, each compound, which was dissolved in dimethylsulfoxide (DMSO) and diluted with phosphate buffer solution (PBS), was added to each well and the cells were cultured for another two days at 37 °C. 20 μL (5 mg/mL) MTT solution was added to per well and the culture continued for another 3–4 h. The medium was removed and 100 μL DMSO was added to dissolve formazan crystals. Absorbance was measured at 492 nm using an ELISA reader (Thermo). The antitumor activities were expressed as IC50.

[3] = system: melanoma (K111); test: MTT cell growth inhibition assay, K111; type: cell-based; details: 48 h, K111 cells, two days, read-out: IC50 ± SD K111
Experimental: as §1, §2, §3

[4] = system: oral epithelial (KB); test: MTT cell growth inhibition assay, KB; type: cell-based; details: Homo sapiens, 48 h, KB cells, two days
Experimental: as §1, §2, §3

[5] = system: large cell lung cancer cell lines (NCI-H460); test: MTT cell growth inhibition assay, NCI-H460; type: cell-based; details: Homo sapiens, 48 h, NCI-H460 cells, two days, read-out: IC50 ± SD NCI-H460
Experimental: as §1, §2, §3

[6] = molecular target: hERG potassium currents (Homo sapiens, UniProt Q12809); test: Inhibition of hERG potassium currents in HEK239 cells (cardiotoxicity)
[7] = sunitinib-treated patients, pivotal phase III metastatic renal cell carcinoma trial; cited from earlier work

hERG potassium currents, sequence (Q12809 whole entry): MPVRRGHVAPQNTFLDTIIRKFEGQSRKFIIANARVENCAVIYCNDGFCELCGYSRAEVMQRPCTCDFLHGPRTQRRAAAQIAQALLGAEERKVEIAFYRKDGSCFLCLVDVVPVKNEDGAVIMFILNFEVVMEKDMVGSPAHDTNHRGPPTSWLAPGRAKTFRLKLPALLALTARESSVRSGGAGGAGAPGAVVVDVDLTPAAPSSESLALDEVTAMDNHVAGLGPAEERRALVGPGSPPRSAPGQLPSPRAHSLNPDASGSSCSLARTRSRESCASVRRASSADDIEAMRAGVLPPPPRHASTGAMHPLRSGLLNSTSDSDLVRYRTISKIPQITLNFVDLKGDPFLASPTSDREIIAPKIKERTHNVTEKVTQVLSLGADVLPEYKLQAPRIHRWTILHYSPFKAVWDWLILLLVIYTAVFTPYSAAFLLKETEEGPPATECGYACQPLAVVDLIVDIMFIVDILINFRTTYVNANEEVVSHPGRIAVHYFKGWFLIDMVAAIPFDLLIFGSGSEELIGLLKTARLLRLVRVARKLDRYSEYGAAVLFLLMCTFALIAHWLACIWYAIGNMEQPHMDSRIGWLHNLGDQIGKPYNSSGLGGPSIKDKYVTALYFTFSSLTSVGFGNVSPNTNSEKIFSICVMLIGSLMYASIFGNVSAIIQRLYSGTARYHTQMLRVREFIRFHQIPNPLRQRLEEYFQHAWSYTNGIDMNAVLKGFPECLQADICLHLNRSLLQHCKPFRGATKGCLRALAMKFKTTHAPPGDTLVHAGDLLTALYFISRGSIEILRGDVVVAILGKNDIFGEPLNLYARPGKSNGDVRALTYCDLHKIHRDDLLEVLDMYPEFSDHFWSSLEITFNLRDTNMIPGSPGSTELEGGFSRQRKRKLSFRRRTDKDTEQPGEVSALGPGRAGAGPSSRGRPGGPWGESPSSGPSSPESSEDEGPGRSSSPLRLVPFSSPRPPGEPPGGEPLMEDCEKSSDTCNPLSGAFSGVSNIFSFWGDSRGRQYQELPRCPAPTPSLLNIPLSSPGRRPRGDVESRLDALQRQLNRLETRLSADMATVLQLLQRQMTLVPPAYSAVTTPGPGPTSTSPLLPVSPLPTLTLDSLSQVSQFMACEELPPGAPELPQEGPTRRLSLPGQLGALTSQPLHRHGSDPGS
VEGFR2 tyrosine kinase, sequence (P35968 20-1356): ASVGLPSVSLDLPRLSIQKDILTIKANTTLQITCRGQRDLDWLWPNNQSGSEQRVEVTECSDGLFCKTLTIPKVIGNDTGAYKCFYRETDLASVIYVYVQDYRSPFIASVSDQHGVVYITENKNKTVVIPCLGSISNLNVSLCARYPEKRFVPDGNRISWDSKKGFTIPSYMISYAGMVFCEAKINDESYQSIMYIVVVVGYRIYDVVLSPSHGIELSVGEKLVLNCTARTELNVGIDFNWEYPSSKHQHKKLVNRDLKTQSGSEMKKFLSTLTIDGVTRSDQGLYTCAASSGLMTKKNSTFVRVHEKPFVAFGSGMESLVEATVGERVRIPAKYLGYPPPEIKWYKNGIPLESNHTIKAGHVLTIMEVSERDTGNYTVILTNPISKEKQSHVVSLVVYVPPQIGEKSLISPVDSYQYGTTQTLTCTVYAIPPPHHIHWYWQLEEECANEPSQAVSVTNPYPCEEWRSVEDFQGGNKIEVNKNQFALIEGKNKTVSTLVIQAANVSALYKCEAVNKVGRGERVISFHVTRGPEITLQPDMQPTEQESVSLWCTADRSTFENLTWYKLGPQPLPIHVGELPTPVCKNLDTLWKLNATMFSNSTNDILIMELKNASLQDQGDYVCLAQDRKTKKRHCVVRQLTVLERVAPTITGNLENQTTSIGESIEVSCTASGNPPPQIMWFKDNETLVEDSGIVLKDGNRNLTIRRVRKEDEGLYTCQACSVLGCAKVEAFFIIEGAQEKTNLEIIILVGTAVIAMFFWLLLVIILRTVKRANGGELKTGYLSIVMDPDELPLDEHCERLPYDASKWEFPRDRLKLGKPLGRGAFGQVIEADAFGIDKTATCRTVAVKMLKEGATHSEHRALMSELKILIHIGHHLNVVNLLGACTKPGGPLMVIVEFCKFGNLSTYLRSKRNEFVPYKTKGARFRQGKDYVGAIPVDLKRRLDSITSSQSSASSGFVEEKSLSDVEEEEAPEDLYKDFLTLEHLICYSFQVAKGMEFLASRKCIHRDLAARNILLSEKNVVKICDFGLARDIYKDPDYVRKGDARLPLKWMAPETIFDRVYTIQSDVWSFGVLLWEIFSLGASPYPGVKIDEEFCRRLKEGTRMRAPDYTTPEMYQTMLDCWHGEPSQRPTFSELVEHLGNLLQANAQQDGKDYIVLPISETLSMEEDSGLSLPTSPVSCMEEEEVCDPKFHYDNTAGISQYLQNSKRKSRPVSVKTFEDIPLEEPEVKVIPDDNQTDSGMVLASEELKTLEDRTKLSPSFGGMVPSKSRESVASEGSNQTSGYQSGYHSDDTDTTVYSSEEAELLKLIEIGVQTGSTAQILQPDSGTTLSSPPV

IC50 [1] [nM] | IC50 [2] [nM] | IC50 [3] [nM] | IC50 [4] [nM] | IC50 [5] [nM] | melting point [°C] | Compound | IC50 [6] [nM] | patients who experienced a decline in LVEF to below normal [7] [%]
6.8 ± 0.8 | 1870 ± 260 | 1790 ± 120 | 1250 ± 100 | 32100 ± 3830 | 245.6 to 246.9 | CCN(CC)CCNC(=O)c1c(C)[nH]c(/C=C2\C(=O)Nc3ccc(F)cc32)c1Cl [Compound 14h, (Z)-4-Chloro-N-(2-(diethylamino)ethyl)-5-((5-fluoro-2-oxoindolin-3-ylidene)methyl)-2-methyl-1H-pyrrole-3-carboxamide] | 452 | –
– | 2930 ± 250 | 3830 ± 430 | 2600 ± 180 | 4790 ± 620 | – | CCN(CC)CCNC(=O)c1c(C)[nH]c(/C=C2\C(=O)Nc3ccc(F)cc32)c1C [Sunitinib, sunitinib, reference compound] | – | 21
